According to PubChem BioAssay (NCI):
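Interpolation was linear, between the two tested concentrations surrounding the appropriate level; five concentrations were tested over 48 hours in 96-well plates. Abbreviation: GI50, concentration required for 50% inhibition of growth. TGI: concentration producing complete growth inhibition.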

How the values were obtained:
Assay in all cases: NCI anticancer screen, dose series, 48 h
786-0 renal = tested on: 786-0 renal
A498 renal = tested on: A498 renal
A549 NSCLC = tested on: A549 NSCLC
ACHN renal = tested on: ACHN renal
BT-549 breast = tested on: BT-549 breast
CCRF-CEM leukemia = tested on: CCRF-CEM leukemia
COLO 205 colon = tested on: COLO 205 colon
DU-145 prostate = tested on: DU-145 prostate
EKVX NSCLC = tested on: EKVX NSCLC
HCC-2998 colon = tested on: HCC-2998 colon
HCT-116 colon = tested on: HCT-116 colon
HCT-15 colon = tested on: HCT-15 colon
HL-60(TB) leukemia = tested on: HL-60(TB) leukemia
HOP-62 NSCLC = tested on: HOP-62 NSCLC
HOP-92 NSCLC = tested on: HOP-92 NSCLC
HS 578T breast = tested on: HS 578T breast
HT29 colon = tested on: HT29 colon
IGROV1 ovarian = tested on: IGROV1 ovarian
K-562 leukemia = tested on: K-562 leukemia
KM12 colon = tested on: KM12 colon
LOX IMVI melanoma = tested on: LOX IMVI melanoma
M14 melanoma = tested on: M14 melanoma
MALME-3M melanoma = tested on: MALME-3M melanoma
MCF7 breast = tested on: MCF7 breast
MDA-MB-231 breast = tested on: MDA-MB-231 breast
MDA-MB-435 = tested on: MDA-MB-435
MOLT-4 leukemia = tested on: MOLT-4 leukemia
NCI-H226 lung = tested on: NCI-H226 lung
NCI-H23 lung = tested on: NCI-H23 lung
NCI-H460 lung = tested on: NCI-H460 lung
NCI-H522 lung = tested on: NCI-H522 lung
OVCAR-3 ovarian = tested on: OVCAR-3 ovarian
OVCAR-4 ovarian = tested on: OVCAR-4 ovarian
OVCAR-5 ovarian = tested on: OVCAR-5 ovarian
OVCAR-8 ovarian = tested on: OVCAR-8 ovarian
PC-3 prostate = tested on: PC-3 prostate
RPMI-8226 leukemia = tested on: RPMI-8226 leukemia
RXF 393 renal = tested on: RXF 393 renal
SF-268 CNS = tested on: SF-268 CNS
SF-295 CNS = tested on: SF-295 CNS
SF-539 CNS = tested on: SF-539 CNS
SK-MEL-2 melanoma = tested on: SK-MEL-2 melanoma
SK-MEL-28 melanoma = tested on: SK-MEL-28 melanoma
SK-MEL-5 melanoma = tested on: SK-MEL-5 melanoma
SK-OV-3 ovarian = tested on: SK-OV-3 ovarian
SN12C renal = tested on: SN12C renal
SNB-19 CNS = tested on: SNB-19 CNS
SR leukemia = tested on: SR leukemia
SW-620 colon = tested on: SW-620 colon
T-47D breast = tested on: T-47D breast
TK-10 renal = tested on: TK-10 renal
U251 CNS = tested on: U251 CNS
UACC-62 melanoma = tested on: UACC-62 melanoma
UO-31 renal = tested on: UO-31 renal

## Cc1c(Cl)cccc1NC(=O)c1sc2nc3c(cc2c1N)CCCCC3
786-0 renal
  GI50: 207 nM
  TGI: 14000 nM
A498 renal
  GI50: 331 nM
  TGI: 19300 nM
A549 NSCLC
  GI50: 725 nM
  TGI: > 50000 nM
ACHN renal
  GI50: 449 nM
  TGI: > 50000 nM
BT-549 breast
  GI50: 252 nM
  TGI: > 50000 nM
CCRF-CEM leukemia
  GI50: 257 nM
  TGI: > 50000 nM
COLO 205 colon
  GI50: 596 nM
  TGI: 13200 nM
DU-145 prostate
  GI50: 598 nM
  TGI: 17300 nM
EKVX NSCLC
  GI50: 316 nM
  TGI: > 50000 nM
HCC-2998 colon
  GI50: 1760 nM
  TGI: > 50000 nM
HCT-116 colon
  GI50: 196 nM
  TGI: > 50000 nM
HCT-15 colon
  GI50: 195 nM
  TGI: > 50000 nM
HL-60(TB) leukemia
  GI50: 143 nM
  TGI: 484 nM
HOP-62 NSCLC
  GI50: 411 nM
  TGI: 45300 nM
HOP-92 NSCLC
  GI50: 266 nM
  TGI: 19200 nM
HS 578T breast
  GI50: 227 nM
  TGI: > 50000 nM
HT29 colon
  GI50: 186 nM
  TGI: 5020 nM
IGROV1 ovarian
  GI50: 376 nM
  TGI: > 50000 nM
K-562 leukemia
  GI50: 166 nM
  TGI: > 50000 nM
KM12 colon
  GI50: 236 nM
  TGI: > 50000 nM
LOX IMVI melanoma
  GI50: 262 nM
  TGI: 23700 nM
M14 melanoma
  GI50: 233 nM
  TGI: > 50000 nM
MALME-3M melanoma
  GI50: 357 nM
  TGI: 37700 nM
MCF7 breast
  GI50: 105 nM
  TGI: > 50000 nM
MDA-MB-231 breast
  GI50: 827 nM
  TGI: > 50000 nM
MDA-MB-435
  GI50: 104 nM
  TGI: 317 nM
MOLT-4 leukemia
  GI50: 275 nM
  TGI: > 50000 nM
NCI-H226 lung
  GI50: 4680 nM
  TGI: 34100 nM
NCI-H23 lung
  GI50: 391 nM
  TGI: > 50000 nM
NCI-H460 lung
  GI50: 234 nM
  TGI: 8000 nM
NCI-H522 lung
  GI50: 187 nM
  TGI: 42300 nM
OVCAR-3 ovarian
  GI50: 173 nM
  TGI: 1690 nM
OVCAR-4 ovarian
  GI50: 5280 nM
  TGI: > 50000 nM
OVCAR-5 ovarian
  GI50: 1330 nM
  TGI: > 50000 nM
OVCAR-8 ovarian
  GI50: 825 nM
  TGI: > 50000 nM
PC-3 prostate
  GI50: 307 nM
  TGI: 17900 nM
RPMI-8226 leukemia
  GI50: 434 nM
  TGI: > 50000 nM
RXF 393 renal
  GI50: 217 nM
  TGI: 5570 nM
SF-268 CNS
  GI50: 426 nM
  TGI: > 50000 nM
SF-295 CNS
  GI50: 170 nM
  TGI: 10000 nM
SF-539 CNS
  GI50: 171 nM
  TGI: 9070 nM
SK-MEL-2 melanoma
  GI50: 255 nM
  TGI: 25200 nM
SK-MEL-28 melanoma
  GI50: 1220 nM
  TGI: > 50000 nM
SK-MEL-5 melanoma
  GI50: 263 nM
  TGI: 48600 nM
SK-OV-3 ovarian
  GI50: 230 nM
  TGI: 29900 nM
SN12C renal
  GI50: 1440 nM
  TGI: > 50000 nM
SNB-19 CNS
  GI50: 298 nM
  TGI: > 50000 nM
SR leukemia
  GI50: 174 nM
  TGI: > 50000 nM
SW-620 colon
  GI50: 232 nM
  TGI: > 50000 nM
T-47D breast
  GI50: 220 nM
  TGI: > 50000 nM
TK-10 renal
  GI50: 6660 nM
  TGI: 45600 nM
U251 CNS
  GI50: 281 nM
  TGI: 15800 nM
UACC-62 melanoma
  GI50: 233 nM
  TGI: > 50000 nM
UO-31 renal
  GI50: 1650 nM
  TGI: > 50000 nM
